Results on four compounds are retold here after ChEMBL document CHEMBL5506005, “Biochemical and structural characterization of chlorhexidine as an ATP-assisted inhibitor against type 1 methionyl-tRNA synthetase from Gram-positive bacteria” (Eur J Med Chem, 2024).

One may read the Kd as the free concentration of one partner at which half of the binding sites on the other are occupied at equilibrium, for simple one-to-one binding. As usually defined, the IC50 is the concentration at which inhibition is half-maximal. A word on the ΔTm: it is the shift of the melting midpoint relative to a reference. As usually defined, the inhibition is the percentage by which the read-out fell short of the control.

The target in assay [1] is T1, Methionine--tRNA ligase (Staphylococcus aureus (strain Mu50 / ATCC 700699), UniProt P67578). The assay can be described thus: Binding affinity to Staphylococcus aureus MetRS expressed in Escherichia coli BL21(DE3) cells assessed as dissociation constant in presence of 1 mM ATP by ITC analysis. (In general: ITC needs no label: the signal is the heat of the interaction.)
T1 sequence (P67578 whole entry): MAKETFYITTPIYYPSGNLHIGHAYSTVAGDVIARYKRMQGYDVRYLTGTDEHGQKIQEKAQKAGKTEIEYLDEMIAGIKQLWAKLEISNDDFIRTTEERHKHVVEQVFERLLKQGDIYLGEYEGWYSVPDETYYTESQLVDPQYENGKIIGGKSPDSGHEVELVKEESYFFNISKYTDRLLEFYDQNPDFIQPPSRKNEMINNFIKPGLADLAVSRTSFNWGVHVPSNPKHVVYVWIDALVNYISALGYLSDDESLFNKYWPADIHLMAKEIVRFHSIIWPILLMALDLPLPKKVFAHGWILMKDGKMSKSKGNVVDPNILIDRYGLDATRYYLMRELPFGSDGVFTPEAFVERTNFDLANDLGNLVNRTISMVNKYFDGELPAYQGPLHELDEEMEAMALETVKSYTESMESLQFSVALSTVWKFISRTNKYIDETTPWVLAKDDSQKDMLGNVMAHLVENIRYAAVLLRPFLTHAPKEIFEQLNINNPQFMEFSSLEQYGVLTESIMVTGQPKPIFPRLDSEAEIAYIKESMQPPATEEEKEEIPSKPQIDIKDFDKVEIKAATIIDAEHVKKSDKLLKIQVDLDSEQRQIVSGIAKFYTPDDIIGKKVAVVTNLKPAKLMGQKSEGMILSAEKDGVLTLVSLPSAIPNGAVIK

Assay [2] deals with T1, Methionine--tRNA ligase. Briefly: Inhibition of Staphylococcus aureus MetRS expressed in Escherichia coli BL21(DE3) cells measured after 2.5 hrs in presence of ATP by pre-transfer editing assay.
Assay [3] has as its target T2, Methionine--tRNA ligase (Enterococcus faecalis, UniProt A0A3N3ZFK4). The assay can be described thus: Inhibition of Enterococcus faecalis type 1 MetRS expressed in Escherichia coli BL21(DE3) cells measured after 1.5 hrs in presence of ATP by pre-transfer editing assay.
The target of assay [4] is T2, Methionine--tRNA ligase. Briefly: Binding affinity to Enterococcus faecalis type 1 MetRS expressed in Escherichia coli BL21(DE3) cells assessed as dissociation constant in presence of 1 mM ATP by ITC analysis.
Assay [5] has as its target T2, Methionine--tRNA ligase. Briefly: Binding affinity to Enterococcus faecalis type 1 MetRS expressed in Escherichia coli BL21(DE3) cells assessed as dissociation constant by ITC analysis.
In assay [6] the target is T1, Methionine--tRNA ligase. The assay can be described thus: Binding affinity to Staphylococcus aureus MetRS expressed in Escherichia coli BL21(DE3) cells assessed as dissociation constant by ITC analysis.
Assay [7] deals with T1, Methionine--tRNA ligase. Briefly: Binding affinity to Staphylococcus aureus MetRS expressed in Escherichia coli BL21(DE3) cells assessed as dissociation constant in presence of 20 uM ATP by ITC analysis.
For assay [8], the target named is T1, Methionine--tRNA ligase. Briefly: Binding affinity to Staphylococcus aureus MetRS expressed in Escherichia coli BL21(DE3) cells assessed as dissociation constant in presence of 50 uM ATP by ITC analysis.
The target of assay [9] is Methionine--tRNA ligase (Staphylococcus aureus (strain Mu50 / ATCC 700699)) (UniProt P67578). Briefly: Binding affinity to Staphylococcus aureus MetRS expressed in Escherichia coli BL21(DE3) cells assessed as change in melting temperature at 100 uM incubated for 10 mins followed by heat treatment by SYPRO orange dye based TSA (reference value: 53.7 degreeC).
Sequence of Methionine--tRNA ligase (Staphylococcus aureus (strain Mu50 / ATCC 700699)) (P67578 whole entry): as above
The target is the same in assay [10]. Briefly: Binding affinity to Staphylococcus aureus MetRS expressed in Escherichia coli BL21(DE3) cells assessed as change in melting temperature at 100 uM incubated for 10 mins followed by heat treatment in presence of 2 mM ATP by SYPRO orange dye based TSA (reference value: 56.4 degreeC).
For assay [11] the target is unchanged. Briefly: Inhibition of Staphylococcus aureus MetRS expressed in Escherichia coli BL21(DE3) cells at 100 uM measured after 2.5 hrs in presence of ATP by pre-transfer editing assay relative to control.

T2 sequence (A0A3N3ZFK4 whole entry): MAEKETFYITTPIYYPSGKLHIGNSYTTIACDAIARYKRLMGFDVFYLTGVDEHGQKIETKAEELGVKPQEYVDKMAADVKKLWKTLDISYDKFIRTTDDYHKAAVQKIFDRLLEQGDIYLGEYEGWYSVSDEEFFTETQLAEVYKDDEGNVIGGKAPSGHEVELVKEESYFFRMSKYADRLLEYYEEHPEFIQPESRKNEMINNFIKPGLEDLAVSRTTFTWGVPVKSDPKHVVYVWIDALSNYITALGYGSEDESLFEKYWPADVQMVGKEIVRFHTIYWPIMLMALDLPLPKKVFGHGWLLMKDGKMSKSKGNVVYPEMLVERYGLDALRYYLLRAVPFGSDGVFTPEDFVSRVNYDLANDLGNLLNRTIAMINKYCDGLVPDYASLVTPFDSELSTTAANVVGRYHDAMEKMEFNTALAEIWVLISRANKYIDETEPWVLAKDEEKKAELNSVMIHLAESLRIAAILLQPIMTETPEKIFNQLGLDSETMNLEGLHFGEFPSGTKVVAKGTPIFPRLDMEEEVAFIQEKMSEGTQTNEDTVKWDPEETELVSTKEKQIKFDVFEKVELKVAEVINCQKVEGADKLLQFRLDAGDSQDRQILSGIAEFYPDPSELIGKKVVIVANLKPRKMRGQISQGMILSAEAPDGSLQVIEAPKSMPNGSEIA

`[H]/N=C(/NCCCCN/C(=N/[H])N/C(=N/[H])Nc1ccc(Cl)cc1)N/C(=N/[H])Nc1ccc(Cl)cc1`: the Kd in [1] stood at 452 nM; in [4] it was 150 nM; in [5], 2700 nM; in [6], 4920 nM; in assay [7], 1370 nM; in assay [8] it was 493 nM. Besides, the IC50 in assay [2] was determined as 17300 nM; in assay [3], 16100 nM.

Consider `C=C(F)c1sc(CNCCCNc2cc(=O)c3ccccc3[nH]2)c(C)c1Br`, for which the ΔTm in assay [9] was determined as 16.2 °C; in assay [10] it was 20.3 °C. In assay [11], the inhibition was above 99%.

Take `CCN(CC)CCCC(C)Nc1ccnc2cc(Cl)ccc12` (configuration not stated): the values for the ΔTm in assay [9] and in assay [10] were -0.1 °C and 1.1 °C, respectively. Moreover, the inhibition in assay [11] was below 20%.

Regarding `COc1cc(Nc2c(C#N)cnc3cc(OCCCN4CCN(C)CC4)c(OC)cc23)c(Cl)cc1Cl`, the figures for the ΔTm in assay [9] and in assay [10] were 0.5 °C and 2.1 °C, respectively. In addition, the inhibition in assay [11] is 32.7%.
